Each structure is given as a SMILES string. Where only a bound is given, the exact number is not on record here.

The target in assay [1] is T1, hCatB (Human Cathepsin B) (Homo sapiens, UniProt P07858).
T1 construct: gene CTSB; recombinant human enzyme, gift of J. Mort
Nature of the assay: fluorogenic inhibition assay, Z-FR-AMC ([…]). The conditions noted are these: 0.1 M sodium acetate pH 5.5, 2.5 mM DTT, 2.5 mM EDTA, room temperature. The class given is biochemical.

The target in assay [2] is T2, hCatL (human Cathepsin L) (Homo sapiens, UniProt P07711).
T2 construct: gene CTSL; native enzyme from human liver, commercial (Fisher Scientific)
T2 sequence (P07711 114-288): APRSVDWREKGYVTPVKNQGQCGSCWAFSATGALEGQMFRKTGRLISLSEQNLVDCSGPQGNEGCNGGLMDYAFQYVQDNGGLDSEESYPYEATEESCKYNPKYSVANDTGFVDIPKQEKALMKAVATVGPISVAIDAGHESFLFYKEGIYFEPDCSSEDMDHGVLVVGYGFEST
T2 sequence (P07711 292-333): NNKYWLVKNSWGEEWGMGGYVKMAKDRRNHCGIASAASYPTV
Nature of the assay: fluorogenic inhibition assay, Z-FR-AMC ([…]). It counts as biochemical. The conditions noted are these: 0.1 M sodium acetate pH 5.5, 2.5 mM DTT, 2.5 mM EDTA, room temperature.

On to `CC(C)(C)[C@H](NC(=O)C(F)(F)F)C(=O)N1C[C@H]2[C@@H]([C@H]1C(=O)N[C@H](C#N)C[C@@H]1CCNC1=O)C2(C)C` [Nirmatrelvir], for which the “not inhibited by 10 μM” value in assay [1] and in assay [2] was more than 10 µM each time.

(Values after publication doi:10.1101/2025.10.03.680348v2, “Cathepsin K as a Key Protease in Processing of SARS-CoV-2 Spike Activation Sites and a Target of Dual-Inhibition” (biorxiv, 2025).)
